Results as given in patent US20240209053A1 (Protagonist Therapeutics, Inc., priority 2021, published 2024).
Numbered stars: 1 amine (or outer) side, 2 acyl side, 3 side chain; on linkers, the order of the positions; unused ones are H or OH. Bridge positions count the residues as written; N and C are the ends. Square brackets hold non-standard residues; d marks the D form. Side chains are listed from the residue outwards. Peptide text beside a SMILES is read from it. * marks the point of attachment. Dip = N[C@H](C(=O)O)C(c1ccccc1)c1ccccc1; Hag = O=C([C@H](CCC=[*:3])N[*:1])[*:2]; Palmitoyl = CCCCCCCCCCCCCCCC(=O)*; tBuAla = CC(C)(C)C[C@H](N)C(=O)O; β3hF = N[C@H](CC(=O)O)Cc1ccccc1; Isovaleryl = CC(C)CC(=O)*; Ahx = NCCCCCC(=O)O

What was measured:
[1] = biological target: T1, human ferroportin (SLC40A1) (Homo sapiens, UniProt Q9NP59); experiment: FPN activity assay: internalization/degradation of ferroportin-GFP in stably transfected HEK293 cells (decrease in GFP fluorescence); assay type: cell-based; settings: compound incubated at least 18 hours
T1 sequence (Q9NP59 1-571): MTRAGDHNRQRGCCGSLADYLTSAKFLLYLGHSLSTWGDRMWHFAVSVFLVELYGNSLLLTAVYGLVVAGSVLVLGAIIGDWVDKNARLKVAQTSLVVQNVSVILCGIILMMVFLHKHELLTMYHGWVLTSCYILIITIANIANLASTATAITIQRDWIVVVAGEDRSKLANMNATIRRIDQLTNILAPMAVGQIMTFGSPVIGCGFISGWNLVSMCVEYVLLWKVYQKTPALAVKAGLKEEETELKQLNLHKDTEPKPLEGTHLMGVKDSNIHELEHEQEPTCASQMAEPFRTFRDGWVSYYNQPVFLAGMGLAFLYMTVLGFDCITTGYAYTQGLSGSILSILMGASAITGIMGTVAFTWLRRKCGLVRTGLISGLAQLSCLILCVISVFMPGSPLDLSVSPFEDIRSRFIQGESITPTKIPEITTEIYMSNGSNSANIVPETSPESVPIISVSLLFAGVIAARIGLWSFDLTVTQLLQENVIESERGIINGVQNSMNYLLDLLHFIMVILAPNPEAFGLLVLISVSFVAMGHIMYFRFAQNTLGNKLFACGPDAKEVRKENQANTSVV
Method in brief: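 HEK293 cells stably expressing human ferroportin C-terminally fused to GFP were exposed to peptides for at least 18 h, at most 24 h. Internalization/degradation read as loss of GFP fluorescence; EC50 derived. Retro-inverse mini-hepcidin peptides used as control standards.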

[2] = biological target: T2, ferroportin (Homo sapiens, UniProt Q9NP59); experiment: T47D cell-based ferroportin internalization assay in presence of 0.5% mouse serum albumin (MSA); settings: T47D cells
T2 sequence (Q9NP59 1-571): T1 sequence (Q9NP59 1-571)
Protocol: The potency of the peptides in causing ferroportin internalization was evaluated in a T47D cell-based assay. […] In this internalization assay, the potency of the test peptides was evaluated in presence of serum albumin which is the main protein component in the blood. T47D cells were maintained in RPMI media (containing required amount of fetal bovine serum) and regularly sub-cultured. In preparation for the assay, the cells were seeded in 96-well plates at a density of 80-100 k cells per well in 100 ul volume and allowed to rest overnight. On the next day, test peptides were first prepared in dilution series (10-point series, starting concentration of ˜5 μM, typically 3-4×fold dilution steps), all with 0.5% mouse serum albumin (MSA purified from mouse serum; Sigma, A3139). The test peptide dilution series were allowed to incubate at room temperature for 30 min. Then the media was aspirated from the 96-well cell plate and test peptide dilution series were added. After 1 hr incubation, the media with test peptides was aspirated out and AF647-conjugated detection peptide was added at fixed concentration of 200 nM. The AF647-conjugated detection peptide was previously verified to bind to ferroportin and cause its internalization. The cells were washed again after a 2 hr incubation in preparation for flow cytometry analysis. The Median Fluorescence Intensity (MFI) of the AF647-positive population was measured (after removing dead cells and non-singlets from the analysis). The MFI values were used to generate a dose-response curve and obtain IC50 potencies for the test peptides. The IC50 potencies were calculated by using 4-parameter non-linear fitting function in Graphpad Prism (Table 6A).

Compound	IC50 [1] [nM]	IC50 [2] [nM]
CCCCCCCCCCCCCCCC(=O)NCCCCCC(=O)NCCCC[C@H](NC(=O)C[C@H](Cc1ccccc1)NC(=O)[C@@H]1CCC=CCC[C@H](NC(=O)CC(C)C)C(=O)N(C)[C@@H]([C@@H](C)O)C(=O)N[C@@H](Cc2c[nH]cn2)C(=O)N[C@@H](C(c2ccccc2)c2ccccc2)C(=O)N2CCC[C@H]2C(=O)N[C@@H](C)C(=O)N[C@@H]([C@@H](C)CC)C(=O)N1)C(=O)N[C@H](CCCCN)C(N)=O [Compd 49]	10 to 100	100 to 500
CC[C@H](C)[C@@H]1NC(=O)[C@H](C)NC(=O)[C@@H]2CCCN2C(=O)[C@H](C(c2ccccc2)c2ccccc2)NC(=O)[C@H](Cc2c[nH]cn2)NC(=O)[C@H]([C@@H](C)O)NC(=O)[C@@H](NC(=O)CC(C)C)CCC=CCC[C@@H](C(=O)N[C@H](CC(=O)N[C@@H](C)C(=O)N[C@H](CCCCN)C(N)=O)Cc2ccccc2)NC1=O [Compd 47] (Isovaleryl-[Hag]TH[Dip]PAI[Hag][β3hF]A[dK]-NH2; staple 1-8)	10 to 100	10 to 100
CCCCCCCCCCCCCCCC(=O)NCCCCCC(=O)NCCCC[C@@H]1NC(=O)[C@@H]2CCCN2C(=O)[C@H](C(c2ccccc2)c2ccccc2)NC(=O)[C@H](Cc2c[nH]cn2)NC(=O)[C@H]([C@@H](C)O)NC(=O)[C@@H](NC(=O)CC(C)C)CCCC=CCCC[C@@H](C(=O)N[C@H](CC(=O)N[C@H](CCCCN)C(N)=O)Cc2ccccc2)NC(=O)[C@H]([C@@H](C)CC)NC1=O [Compd 33]	1 to 10	1 to 10
CCCCCCCCCCCCCCCC(=O)NCCCCCC(=O)NCCCC[C@H](NC(=O)C[C@H](Cc1ccccc1)NC(=O)[C@@H]1CCC=CCC[C@H](NC(=O)CC(C)C)C(=O)N[C@@H]([C@@H](C)O)C(=O)N[C@@H](Cc2c[nH]cn2)C(=O)N[C@@H](C(c2ccccc2)c2ccccc2)C(=O)N2CCC[C@H]2C(=O)N[C@@H](CC(C)(C)C)C(=O)N[C@@H]([C@@H](C)CC)C(=O)N1)C(=O)N[C@H](CCCCN)C(N)=O [Compd 62] (Isovaleryl-[Hag]TH[Dip]P[tBuAla]I[Hag][β3hF]K([Ahx-Palmitoyl])[dK]-NH2; staple 1-8)	10 to 100	1 to 10
CCCCCCCCCCCCCCCC(=O)NCCCCCC(=O)NCCCC[C@H](NC(=O)C[C@H](Cc1ccccc1)NC(=O)[C@@H]1CC=CCCC[C@H](NC(=O)CC(C)C)C(=O)N[C@@H]([C@@H](C)O)C(=O)N[C@@H](Cc2c[nH]cn2)C(=O)N[C@@H](C(c2ccccc2)c2ccccc2)C(=O)N2CCC[C@H]2C(=O)N[C@@H](C)C(=O)N[C@@H]([C@@H](C)CC)C(=O)N1)C(=O)N[C@H](CCCCN)C(N)=O [Compd 30]	1 to 10	1 to 10
CCCCCCCCCCCCCCCC(=O)NCCCCCC(=O)NCCCC[C@H](NC(=O)C[C@H](Cc1ccccc1)NC(=O)[C@@H]1CCCC=CCC[C@@H](NC(=O)CC(C)C)C(=O)N[C@@H]([C@@H](C)O)C(=O)N[C@@H](Cc2c[nH]cn2)C(=O)N[C@@H](C(c2ccccc2)c2ccccc2)C(=O)N2CCC[C@H]2C(=O)N[C@@H](C)C(=O)N[C@@H]([C@@H](C)CC)C(=O)N1)C(=O)N[C@H](CCCCN)C(N)=O [Compd 67]	1 to 10	10 to 100
CCCCCCCCCCCCCCCC(=O)NCCCCCC(=O)NCCCC[C@H](NC(=O)[C@H](C)NC(=O)[C@@H]1CCC=CCC[C@H](NC(=O)CC(C)C)C(=O)N[C@@H]([C@@H](C)O)C(=O)N[C@@H](Cc2c[nH]cn2)C(=O)N[C@@H](C(c2ccccc2)c2ccccc2)C(=O)N2CCC[C@H]2C(=O)N[C@@H](C)C(=O)N[C@@H]([C@@H](C)CC)C(=O)N1)C(=O)N[C@H](CCCCN)C(N)=O [Compd 46] (Isovaleryl-[Hag]TH[Dip]PAI[Hag]AK([Ahx-Palmitoyl])[dK]-NH2; staple 1-8)	100 to 500	100 to 500
CCCCCCCCCCCCCCCC(=O)NCCCCCC(=O)NCCCC[C@H](NC(=O)C[C@H](Cc1ccccc1)NC(=O)[C@@H]1CCC=CCC[C@H](NC(=O)CC(C)C)C(=O)N[C@@H]([C@@H](C)O)C(=O)N[C@@H](Cc2c[nH]cn2)C(=O)N[C@@H](C(c2ccccc2)c2ccccc2)C(=O)N2CCC[C@H]2C(=O)N(C)[C@@H](C)C(=O)N[C@@H]([C@@H](C)CC)C(=O)N1)C(=O)N[C@H](CCCCN)C(N)=O [Compd 52]	10 to 100	10 to 100
CCCCCCCCCCCCCCCC(=O)NCCCCCC(=O)NCCCC[C@H](NC(=O)C[C@H](Cc1ccccc1)NC(=O)[C@@H]1CCC=CCCC[C@@H](NC(=O)CC(C)C)C(=O)N[C@@H]([C@@H](C)O)C(=O)N[C@@H](Cc2c[nH]cn2)C(=O)N[C@@H](C(c2ccccc2)c2ccccc2)C(=O)N2CCC[C@H]2C(=O)N[C@@H](C)C(=O)N[C@@H]([C@@H](C)CC)C(=O)N1)C(=O)N[C@H](CCCCN)C(N)=O [Compd 69]	1 to 10	> 500

Further lines, results first:

IC50 [1] [nM]	IC50 [2] [nM]	Compound
10 to 100	1 to 10	CCCCCCCCCCCCCCCC(=O)NCCCCCC(=O)NCCCC[C@H](NC(=O)C[C@H](Cc1ccccc1)NC(=O)[C@@H]1CCC=CCC[C@H](NC(=O)CC(C)C)C(=O)N[C@@H]([C@@H](C)O)C(=O)N[C@@H](Cc2c[nH]cn2)C(=O)N[C@@H](C(c2ccccc2)c2ccccc2)C(=O)N2CCC[C@H]2C(=O)N[C@@H](C)C(=O)N[C@@H]([C@@H](C)CC)C(=O)N1)C(N)=O [Compd 17]
1 to 10	10 to 100	CCCCCCCCCCCCCCCC(=O)NCCCCCC(=O)NCCCC[C@H](NC(=O)C[C@H](Cc1ccccc1)NC(=O)[C@@H]1CCC=CCC[C@H](NC(=O)CC(C)C)C(=O)N[C@@H]([C@@H](C)O)C(=O)N[C@@H](Cc2c[nH]cn2)C(=O)N[C@@H](C(c2ccccc2)c2ccccc2)C(=O)N2CCC[C@H]2C(=O)N[C@@H](C)C(=O)N[C@@H]([C@@H](C)CC)C(=O)N1)C(=O)N[C@H](CCCCN)C(N)=O [Peptide ID #16, Isovaleric Acid-[Ala(2)]-T-H-[Dpa]-P-A-I-[Ala(2)]-[bhPhe]-[Lys(Ahx_Palm)]-[(D)Lys]-NH2]
10 to 100	1 to 10	CCCCCCCCCCCCCCCC(=O)NCCCCCC(=O)NCCCC[C@H](NC(=O)C[C@H](Cc1ccccc1)NC(=O)[C@@H]1CCC=CC[C@H](NC(=O)CC(C)C)C(=O)N[C@@H]([C@@H](C)O)C(=O)N[C@@H](Cc2c[nH]cn2)C(=O)N[C@@H](C(c2ccccc2)c2ccccc2)C(=O)N2CCC[C@H]2C(=O)N[C@@H](C)C(=O)N[C@@H]([C@@H](C)CC)C(=O)N1)C(=O)N[C@@H](CCCNC(=N)N)C(N)=O [Compd 23]
10 to 100	1 to 10	CCCCCCCCCCCCCCCC(=O)NCCCCCC(=O)NCCCC[C@H](NC(=O)C[C@H](Cc1ccccc1)NC(=O)[C@@H]1CCCC=CCCC[C@@H](NC(=O)CC(C)C)C(=O)N[C@@H]([C@@H](C)O)C(=O)N[C@@H](Cc2c[nH]cn2)C(=O)N[C@@H](C(c2ccccc2)c2ccccc2)C(=O)N2CCC[C@H]2C(=O)N[C@@H](C)C(=O)N[C@@H]([C@@H](C)CC)C(=O)N1)C(=O)N[C@H](CCCCN)C(N)=O [Compd 70]
10 to 100	10 to 100	CCCCCCCCCCCCCCCC(=O)NCCCCCC(=O)NCCCC[C@H](NC(=O)C[C@H](Cc1ccccc1)NC(=O)[C@@H]1CCC=CCC[C@H](NC(=O)CC(C)C)C(=O)N[C@@H]([C@@H](C)O)C(=O)N[C@@H](Cc2c[nH]cn2)C(=O)N[C@@H](C(c2ccccc2)c2ccccc2)C(=O)N2CCC[C@H]2C(=O)N[C@@H](C)C(=O)N[C@@H](C)C(=O)N1)C(=O)N[C@H](CCCCN)C(N)=O [Compd 45] (Isovaleryl-[Hag]TH[Dip]PAA[Hag][β3hF]K([Ahx-Palmitoyl])[dK]-NH2; staple 1-8)
1 to 10	1 to 10	CCCCCCCCCCCCCCCC(=O)NCCCCCC(=O)NCCCC[C@H](NC(=O)C[C@H](Cc1ccccc1)NC(=O)[C@@H]1CCCC=CCCC[C@H](NC(=O)CC(C)C)C(=O)N[C@@H]([C@@H](C)O)C(=O)N[C@@H](Cc2c[nH]cn2)C(=O)N[C@@H](C(c2ccccc2)c2ccccc2)C(=O)N2CCC[C@H]2C(=O)N[C@@H](C)C(=O)N[C@@H]([C@@H](C)CC)C(=O)N1)C(=O)N[C@H](CCCCN)C(N)=O [Compd 28]
